How the values were obtained:
Experiment in all cases: DSF 100 kinase selectivity screen;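 further: compound tested at 20 µM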
Type in all cases: binding
[1] = molecular target: T1, ~100 representative kinases (Homo sapiens, UniProt O14965); conditions: Protein STK6; DSF; average of three replicates
T1 construct: Recombinant protein kinase domains with a concentration of 2 μM
T1 sequence (O14965 1-403): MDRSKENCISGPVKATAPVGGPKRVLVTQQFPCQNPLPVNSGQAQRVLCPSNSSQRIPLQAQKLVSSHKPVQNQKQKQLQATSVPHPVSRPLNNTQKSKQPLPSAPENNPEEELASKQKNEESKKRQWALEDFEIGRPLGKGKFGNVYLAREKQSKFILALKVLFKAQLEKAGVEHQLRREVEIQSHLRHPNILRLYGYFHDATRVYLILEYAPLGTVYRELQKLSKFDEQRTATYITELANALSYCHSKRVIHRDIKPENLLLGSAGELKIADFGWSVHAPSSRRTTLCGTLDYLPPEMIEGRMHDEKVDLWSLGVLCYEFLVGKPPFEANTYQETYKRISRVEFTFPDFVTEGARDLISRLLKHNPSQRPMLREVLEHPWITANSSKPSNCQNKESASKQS
Method in brief: (§1)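 Each kinase domain, at 2 μM, is mixed with 20 μM test compound and SYPRO Orange in Hepes (20 mM, pH 7.5) with 500 mM NaCl. Temperature is then raised at 3°C/min and fluorescence-monitored unfolding yields the melting temperature change, ΔTm in degrees Celsius.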

[2] = molecular target: T2, ~100 representative kinases (Homo sapiens, UniProt O94804); conditions: Protein STK10; DSF; average of three replicates
T2 construct: Recombinant protein kinase domains with a concentration of 2 μM
Method in brief: as §1

[3] = molecular target: T3, ~100 representative kinases (Homo sapiens, UniProt P27448); conditions: protein MARK3; average of three replicates
T3 construct: Recombinant protein kinase domains with a concentration of 2 μM
Method in brief: as §1

[4] = molecular target: T4, ~100 representative kinases (Homo sapiens, UniProt P34947); conditions: protein GPRK5; average of three replicates
T4 construct: Recombinant protein kinase domains with a concentration of 2 μM
Method in brief: as §1

[5] = molecular target: T5, ~100 representative kinases (Homo sapiens, UniProt P54753); conditions: Protein EPHB3A; average of three replicates
T5 construct: Recombinant protein kinase domains with a concentration of 2 μM
T5 sequence (P54753 34-998): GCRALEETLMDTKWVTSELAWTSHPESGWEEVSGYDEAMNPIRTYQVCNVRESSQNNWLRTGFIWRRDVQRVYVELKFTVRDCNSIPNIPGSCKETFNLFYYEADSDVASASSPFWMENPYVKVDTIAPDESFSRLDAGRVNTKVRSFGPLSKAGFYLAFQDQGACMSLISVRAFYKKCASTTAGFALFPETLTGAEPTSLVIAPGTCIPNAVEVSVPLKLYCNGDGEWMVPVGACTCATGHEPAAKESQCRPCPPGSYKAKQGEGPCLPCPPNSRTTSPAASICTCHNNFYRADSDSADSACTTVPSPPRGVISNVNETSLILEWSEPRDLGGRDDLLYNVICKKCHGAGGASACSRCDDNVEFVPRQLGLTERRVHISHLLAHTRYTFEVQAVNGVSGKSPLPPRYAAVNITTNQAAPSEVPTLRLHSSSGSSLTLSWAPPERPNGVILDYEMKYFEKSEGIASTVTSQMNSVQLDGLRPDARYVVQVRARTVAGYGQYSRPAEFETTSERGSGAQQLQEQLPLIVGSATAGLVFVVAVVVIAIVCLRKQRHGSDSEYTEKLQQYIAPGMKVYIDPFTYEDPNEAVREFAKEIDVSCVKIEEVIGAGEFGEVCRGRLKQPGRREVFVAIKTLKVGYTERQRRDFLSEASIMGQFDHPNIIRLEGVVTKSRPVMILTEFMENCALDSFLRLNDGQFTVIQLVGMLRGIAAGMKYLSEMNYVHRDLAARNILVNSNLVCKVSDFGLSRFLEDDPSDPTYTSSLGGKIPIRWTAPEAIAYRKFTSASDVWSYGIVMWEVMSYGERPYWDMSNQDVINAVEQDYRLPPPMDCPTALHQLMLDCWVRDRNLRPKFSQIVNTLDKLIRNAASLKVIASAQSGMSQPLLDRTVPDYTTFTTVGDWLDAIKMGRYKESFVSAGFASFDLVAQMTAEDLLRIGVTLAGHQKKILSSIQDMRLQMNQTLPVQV
Method in brief: as §1

[6] = molecular target: T6, ~100 representative kinases (Homo sapiens, UniProt P54762); conditions: Protein EPHB1; average of three replicates
T6 construct: Recombinant protein kinase domains with a concentration of 2 μM
T6 sequence (P54762 18-984): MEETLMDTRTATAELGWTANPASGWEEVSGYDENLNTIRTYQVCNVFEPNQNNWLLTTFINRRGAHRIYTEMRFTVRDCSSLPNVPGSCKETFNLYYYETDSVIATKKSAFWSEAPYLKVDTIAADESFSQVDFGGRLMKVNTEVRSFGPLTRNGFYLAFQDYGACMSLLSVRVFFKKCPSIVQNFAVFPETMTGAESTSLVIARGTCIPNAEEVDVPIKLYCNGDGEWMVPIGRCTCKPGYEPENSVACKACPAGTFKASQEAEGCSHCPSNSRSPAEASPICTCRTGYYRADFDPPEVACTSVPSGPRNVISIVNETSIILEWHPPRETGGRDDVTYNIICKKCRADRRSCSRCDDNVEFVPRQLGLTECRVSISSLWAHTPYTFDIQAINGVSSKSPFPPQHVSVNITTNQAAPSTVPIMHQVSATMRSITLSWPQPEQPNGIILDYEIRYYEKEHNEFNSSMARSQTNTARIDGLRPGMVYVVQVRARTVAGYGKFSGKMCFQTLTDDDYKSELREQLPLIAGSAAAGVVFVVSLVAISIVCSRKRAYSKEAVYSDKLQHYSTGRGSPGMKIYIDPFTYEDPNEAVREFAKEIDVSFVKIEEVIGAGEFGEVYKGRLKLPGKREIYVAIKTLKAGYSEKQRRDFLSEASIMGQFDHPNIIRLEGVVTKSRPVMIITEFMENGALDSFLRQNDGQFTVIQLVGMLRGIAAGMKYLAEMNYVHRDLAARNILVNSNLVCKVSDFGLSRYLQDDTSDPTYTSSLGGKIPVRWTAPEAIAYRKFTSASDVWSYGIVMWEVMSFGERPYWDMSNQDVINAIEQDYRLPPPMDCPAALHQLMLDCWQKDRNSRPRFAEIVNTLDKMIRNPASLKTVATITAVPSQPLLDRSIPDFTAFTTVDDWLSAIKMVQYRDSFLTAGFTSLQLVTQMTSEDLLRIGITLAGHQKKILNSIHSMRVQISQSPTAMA
Method in brief: as §1

[7] = molecular target: T7, ~100 representative kinases (Homo sapiens, UniProt Q5VT25); conditions: Protein CDC42BPA; average of three replicates
T7 construct: Recombinant protein kinase domains with a concentration of 2 μM
Method in brief: as §1

T4 sequence (P34947 whole entry, the tested form may be a part): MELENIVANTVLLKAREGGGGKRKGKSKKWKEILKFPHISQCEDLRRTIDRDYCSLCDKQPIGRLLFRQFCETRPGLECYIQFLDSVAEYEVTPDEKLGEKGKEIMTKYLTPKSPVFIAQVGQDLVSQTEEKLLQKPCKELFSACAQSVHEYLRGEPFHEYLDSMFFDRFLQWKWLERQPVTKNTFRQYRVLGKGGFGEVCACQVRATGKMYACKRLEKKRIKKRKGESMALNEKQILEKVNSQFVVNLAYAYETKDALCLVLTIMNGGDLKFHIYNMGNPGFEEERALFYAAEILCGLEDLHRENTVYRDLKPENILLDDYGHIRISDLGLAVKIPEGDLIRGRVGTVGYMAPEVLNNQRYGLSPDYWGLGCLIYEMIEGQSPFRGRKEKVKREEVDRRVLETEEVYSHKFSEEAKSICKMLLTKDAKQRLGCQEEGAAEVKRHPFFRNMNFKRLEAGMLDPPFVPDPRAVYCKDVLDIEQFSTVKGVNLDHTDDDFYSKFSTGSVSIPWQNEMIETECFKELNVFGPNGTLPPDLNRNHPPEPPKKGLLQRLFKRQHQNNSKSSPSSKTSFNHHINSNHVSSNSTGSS
T7 sequence (Q5VT25 whole entry, the tested form may be a part): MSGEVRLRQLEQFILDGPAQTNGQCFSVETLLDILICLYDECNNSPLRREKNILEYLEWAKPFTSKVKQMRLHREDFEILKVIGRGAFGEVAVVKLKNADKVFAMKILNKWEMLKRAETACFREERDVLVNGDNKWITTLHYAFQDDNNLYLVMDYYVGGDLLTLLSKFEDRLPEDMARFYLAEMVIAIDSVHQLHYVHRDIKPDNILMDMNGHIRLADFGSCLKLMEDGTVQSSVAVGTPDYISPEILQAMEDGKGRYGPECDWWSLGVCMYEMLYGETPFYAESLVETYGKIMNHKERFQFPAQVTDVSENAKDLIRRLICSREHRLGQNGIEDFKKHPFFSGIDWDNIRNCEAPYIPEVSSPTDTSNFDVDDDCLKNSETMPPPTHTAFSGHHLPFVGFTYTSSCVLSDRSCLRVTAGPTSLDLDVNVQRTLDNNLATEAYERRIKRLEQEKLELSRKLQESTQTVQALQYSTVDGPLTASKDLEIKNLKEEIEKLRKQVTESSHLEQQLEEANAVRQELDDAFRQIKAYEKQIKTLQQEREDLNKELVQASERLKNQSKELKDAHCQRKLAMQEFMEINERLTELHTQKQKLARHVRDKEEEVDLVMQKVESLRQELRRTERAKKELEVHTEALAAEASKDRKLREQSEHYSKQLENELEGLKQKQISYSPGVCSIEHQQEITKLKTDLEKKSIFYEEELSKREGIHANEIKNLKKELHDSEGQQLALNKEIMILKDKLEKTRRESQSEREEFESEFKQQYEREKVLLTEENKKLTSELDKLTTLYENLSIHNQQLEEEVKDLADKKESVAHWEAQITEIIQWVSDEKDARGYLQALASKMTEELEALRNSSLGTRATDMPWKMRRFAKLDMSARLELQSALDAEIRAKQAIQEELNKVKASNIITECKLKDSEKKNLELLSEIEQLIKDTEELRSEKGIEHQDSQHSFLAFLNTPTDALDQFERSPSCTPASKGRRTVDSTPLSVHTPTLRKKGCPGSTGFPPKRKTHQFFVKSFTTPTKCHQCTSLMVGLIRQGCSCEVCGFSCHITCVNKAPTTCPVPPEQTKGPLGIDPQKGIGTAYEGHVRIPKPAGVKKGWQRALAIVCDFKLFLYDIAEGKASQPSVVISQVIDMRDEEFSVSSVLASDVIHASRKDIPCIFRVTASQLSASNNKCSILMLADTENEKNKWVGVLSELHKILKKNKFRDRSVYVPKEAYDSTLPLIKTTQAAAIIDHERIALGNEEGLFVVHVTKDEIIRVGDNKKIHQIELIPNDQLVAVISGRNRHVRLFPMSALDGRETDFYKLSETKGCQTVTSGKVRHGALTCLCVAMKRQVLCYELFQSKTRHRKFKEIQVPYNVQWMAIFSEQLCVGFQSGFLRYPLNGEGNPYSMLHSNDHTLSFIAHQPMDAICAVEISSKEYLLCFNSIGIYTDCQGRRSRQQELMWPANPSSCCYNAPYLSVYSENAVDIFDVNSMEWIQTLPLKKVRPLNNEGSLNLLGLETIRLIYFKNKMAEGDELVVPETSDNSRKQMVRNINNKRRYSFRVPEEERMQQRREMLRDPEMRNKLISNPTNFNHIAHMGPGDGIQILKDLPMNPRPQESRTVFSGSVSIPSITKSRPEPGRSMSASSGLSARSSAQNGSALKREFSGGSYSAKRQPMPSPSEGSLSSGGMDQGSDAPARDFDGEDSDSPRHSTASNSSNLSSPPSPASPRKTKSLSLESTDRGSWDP
T3 sequence (P27448 whole entry, the tested form may be a part): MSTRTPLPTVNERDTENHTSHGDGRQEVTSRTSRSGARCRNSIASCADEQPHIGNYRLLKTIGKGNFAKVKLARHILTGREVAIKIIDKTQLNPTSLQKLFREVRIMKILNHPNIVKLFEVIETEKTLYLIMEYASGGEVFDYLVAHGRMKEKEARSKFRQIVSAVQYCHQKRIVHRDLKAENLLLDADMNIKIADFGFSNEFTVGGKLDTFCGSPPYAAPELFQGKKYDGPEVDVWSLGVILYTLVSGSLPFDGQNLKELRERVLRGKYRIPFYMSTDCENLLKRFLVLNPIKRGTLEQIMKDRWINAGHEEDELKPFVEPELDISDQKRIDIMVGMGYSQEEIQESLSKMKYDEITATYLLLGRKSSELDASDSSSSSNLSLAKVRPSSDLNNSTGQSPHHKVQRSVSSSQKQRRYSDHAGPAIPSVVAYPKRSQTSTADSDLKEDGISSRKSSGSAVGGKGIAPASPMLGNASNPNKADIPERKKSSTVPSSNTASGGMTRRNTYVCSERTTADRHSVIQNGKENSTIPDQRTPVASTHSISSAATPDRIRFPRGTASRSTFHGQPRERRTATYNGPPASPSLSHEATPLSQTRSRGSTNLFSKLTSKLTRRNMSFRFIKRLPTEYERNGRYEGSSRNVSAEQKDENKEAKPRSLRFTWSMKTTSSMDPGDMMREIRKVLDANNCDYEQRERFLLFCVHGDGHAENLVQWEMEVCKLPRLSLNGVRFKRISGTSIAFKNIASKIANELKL
T2 sequence (O94804 whole entry, the tested form may be a part): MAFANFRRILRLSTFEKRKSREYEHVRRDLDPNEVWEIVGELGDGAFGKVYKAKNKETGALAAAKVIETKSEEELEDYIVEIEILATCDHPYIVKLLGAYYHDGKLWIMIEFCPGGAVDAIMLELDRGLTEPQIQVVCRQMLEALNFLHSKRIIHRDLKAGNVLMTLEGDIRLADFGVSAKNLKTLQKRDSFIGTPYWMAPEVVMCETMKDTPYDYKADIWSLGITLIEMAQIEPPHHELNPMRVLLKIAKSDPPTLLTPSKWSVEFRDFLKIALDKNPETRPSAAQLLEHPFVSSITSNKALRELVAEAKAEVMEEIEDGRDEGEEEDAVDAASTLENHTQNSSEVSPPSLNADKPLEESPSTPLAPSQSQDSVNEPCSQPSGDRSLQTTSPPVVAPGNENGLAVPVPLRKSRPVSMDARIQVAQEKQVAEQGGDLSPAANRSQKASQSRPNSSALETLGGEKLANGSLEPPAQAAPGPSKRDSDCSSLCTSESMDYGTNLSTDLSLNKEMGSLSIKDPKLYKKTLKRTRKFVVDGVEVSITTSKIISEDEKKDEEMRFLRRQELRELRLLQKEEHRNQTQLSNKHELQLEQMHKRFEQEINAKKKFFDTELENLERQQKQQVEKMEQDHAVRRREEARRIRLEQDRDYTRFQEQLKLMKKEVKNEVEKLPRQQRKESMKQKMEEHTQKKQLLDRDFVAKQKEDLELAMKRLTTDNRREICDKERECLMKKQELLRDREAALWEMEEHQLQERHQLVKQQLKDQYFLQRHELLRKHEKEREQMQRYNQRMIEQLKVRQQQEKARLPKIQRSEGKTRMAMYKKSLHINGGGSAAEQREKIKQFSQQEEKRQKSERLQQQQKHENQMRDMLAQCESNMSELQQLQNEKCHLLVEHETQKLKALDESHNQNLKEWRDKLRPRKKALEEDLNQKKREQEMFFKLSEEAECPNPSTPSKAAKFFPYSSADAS

SMILES	dTm [1]	dTm [2]	dTm [3]	dTm [4]	dTm [5]	dTm [6]	dTm [7]
O=C(Nc1cccc(-c2c[nH]c3ncnc(N4CCOCC4)c23)c1)C1(C(=O)Nc2ccc(F)c(Cl)c2)CC1 [Compound 18]	8.24 K	15.34 K	7.07 K	0.43 K	2.57 K	3.41 K	-0.25 K
Cn1cc(-c2c[nH]c3ncnc(N4CCOCC4)c23)cc1C#N [PFE-360]	8.08 K	7.58 K	2.70 K	0.56 K	0.07 K	-0.08 K	-1.84 K
Cc1ccc(C(=O)Nc2ccc(CN3CCN(C)CC3)c(C(F)(F)F)c2)cc1C#Cc1c[nH]c2ncnc(N3CCOCC3)c12 [Compound 1]	12.62 K	14.26 K	1.49 K	0.19 K	4.94 K	4.85 K	-1.51 K
O=C(Nc1cccc(-c2c[nH]c3ncnc(N4CCOCC4)c23)c1)C1(C(=O)Nc2ccc(F)c(F)c2)CC1 [Compound 17]	7.27 K	13.86 K	5.81 K	0.75 K	1.94 K	2.50 K	-0.72 K

Next, values leading:

dTm [1]	dTm [2]	dTm [3]	dTm [4]	dTm [5]	dTm [6]	dTm [7]	SMILES
4.51 K	20.14 K	5.67 K	0.98 K	11.98 K	11.35 K	-0.65 K	CC(C)(C)c1cc(NC(=O)Nc2cccc(-c3c[nH]c4ncnc(N5CCOCC5)c34)c2)n(-c2ccc3ncccc3c2)n1 [Compound 28]
7.49 K	16.12 K	7.11 K	0.28 K	1.12 K	1.85 K	0.14 K	O=C(Nc1cccc(-c2c[nH]c3ncnc(N4CCOCC4)c23)c1)C1(C(=O)Nc2ccc(F)c(Br)c2)CC1 [Compound 19]
8.40 K	16.12 K	8.85 K	1.05 K	3.99 K	4.46 K	-1.13 K	Cc1cc(NC(=O)C2(C(=O)Nc3cccc(-c4c[nH]c5ncnc(N6CCOCC6)c45)c3)CC2)ccc1F [Compound 20]
